Data as given in ChEMBL document CHEMBL1128355, “Benzophenone derivatives: a novel series of potent and selective inhibitors of human immunodeficiency virus type 1 reverse transcriptase” (J Med Chem, 1995).
In brackets after ≈: the same amount, converted by molar mass.

Legend:
[1] = Half life period in mouse S9 liver preparation; assay type: ADME; conditions: liver S9 fraction
[2] = Toxicity against uninfected MT-4 cells; assay type: cell-based, MT4; conditions: human
[3] = system: C8166; assay: Inhibitory activity against P24 antigen formation in infected C8166 cells; assay type: functional, cell-based; conditions: Homo sapiens
[4] = target: Human immunodeficiency virus type 1 reverse transcriptase (Human immunodeficiency virus 1, UniProt Q72547); assay: Inhibitory activity against HIV-1 reverse transcriptase
[5] = system: Human immunodeficiency virus 1; assay: Antiviral activity against HIV-1 (strain RF) infected MT-4 cells; assay type: functional, organism-based; conditions: Human immunodeficiency virus 1, MT4
[6] = system: C8166; assay: Inhibitory activity against syncytia formation in infected C8166 cells; assay type: functional, cell-based; conditions: Homo sapiens
[7] = Half life period in mouse serum; assay type: ADME, organism-based
[8] = system: MT4; assay: Antiviral activity against HIV-1 resistant to 2-(2-Benzoyl-4-chloro-phenyl)-N-[4-(3-dimethylamino-propoxy)-2-methyl-phenyl]-acetamide in MT-4 cells; assay type: functional, cell-based; conditions: Homo sapiens
[9] = system: MT4; assay: Cytotoxicity against uninfected MT-4 cells; assay type: functional, cell-based, Homo sapiens
[10] = Homo sapiens, MT4, read-out: IC50

Compound	half-life [1] [h]	IC50 [3] [µg/mL]	IC50 [4] [µM]	IC50 [5] [µg/mL]	IC50 [6] [µg/mL]	half-life [7] [h]	IC50 [2] [µg/mL]	IC50 [8] [µg/mL]	IC50 [9, 10] [µg/mL]	IC50 ([9]; mt4) [µg/mL]
O=C(COc1ccc(Cl)cc1C(=O)c1ccccc1)NC1CCCCC1			39							
CCN(CC)CCOc1ccc(NC(=O)COc2ccccc2C(=O)c2ccc(F)cc2)cc1		< 0.05	21.5	0.75 (≈ 1.61 µM)	0.016 (≈ 0.0344 µM)		> 0.5			
Cc1ccnc2c1NC(=O)c1cccnc1N2C1CC1 [NEVIRAPINE]				0.01 (≈ 0.0376 µM)				0.22 (≈ 0.826 µM)	> 10	
CC(C)(C)NC(=O)[C@@H]1C[C@@H]2CCCC[C@@H]2CN1C[C@@H](O)[C@H](Cc1ccccc1)NC(=O)[C@H](CC(N)=O)NC(=O)c1ccc2ccccc2n1 [SAQUINAVIR]				0.028 (≈ 0.0417 µM)				0.0038 (≈ 0.00566 µM)	> 1	
CCN(CC)CCOc1ccc(NC(=O)COc2cc(OC)ccc2C(=O)c2ccccc2)cc1		0.013 (≈ 0.0273 µM)	13.2	< 0.01	0.05 (≈ 0.105 µM)		5 (≈ 10.5 µM)			
CCc1cc(OCCCN(C)C)ccc1NC(=O)Cc1ccc(Cl)cc1C(=O)c1ccccc1			5.22	0.21 (≈ 0.438 µM)			10 (≈ 20.9 µM)			
CN(C)CCCOc1ccc(NC(=O)Cc2ccc(Cl)cc2C(=O)c2ccccc2)cc1			0.443	0.21 (≈ 0.466 µM)			10 (≈ 22.2 µM)			
Cc1cc(OCCCN(C)C)cc(C)c1NC(=O)Cc1ccc(Cl)cc1C(=O)c1ccccc1			> 104							
O=C(COc1ccc(Cl)cc1C(=O)C1CCCC1)Nc1ccccc1			5.03	0.22 (≈ 0.615 µM)			> 100			
CCN(CC)CCOc1ccc(NC(=O)COc2ccccc2C(=O)c2ccc(OC)cc2)cc1		0.18 (≈ 0.378 µM)	14.3	0.44 (≈ 0.923 µM)	0.34 (≈ 0.713 µM)		5 (≈ 10.5 µM)			
CCN(CC)CCOc1ccc(NC(=O)COc2ccccc2C(=O)c2ccccc2)cc1		0.0015 (≈ 0.00336 µM)	5.15	< 0.001	0.005 (≈ 0.0112 µM)		> 0.5			
c1nc2cnncc2[nH]1				0.004 (≈ 0.0333 µM)				0.5 (≈ 4.16 µM)	> 1	
Nc1ccn([C@@H]2CS[C@H](CO)O2)c(=O)n1 [LAMIVUDINE]				0.043 (≈ 0.188 µM)				0.048 (≈ 0.209 µM)	> 100	
CCc1cc(NCc2nc3c(Cl)ccc(Cl)c3o2)c(O)nc1C [L-697661]				0.0017 (≈ 0.00483 µM)				0.0023 (≈ 0.00653 µM)	100 (≈ 284 µM)	100 (≈ 284 µM)
O=C(COc1ccc(Cl)cc1C(O)c1ccccc1)Nc1ccccc1 (configuration not stated)			> 272							

Now from value to compound, other results behind:

half-life [1] [h]	IC50 [3] [µg/mL]	IC50 [4] [µM]	IC50 [5] [µg/mL]	IC50 [6] [µg/mL]	half-life [7] [h]	Compound	IC50 [2] [µg/mL]	IC50 [8] [µg/mL]	IC50 [9, 10] [µg/mL]	IC50 ([9]; mt4) [µg/mL]
< 0.25	0.0012 (≈ 0.00328 µM)	0.0273	0.0004 (≈ 0.00109 µM)	0.0002 (≈ 0.000547 µM)	< 0.25	O=C(COc1ccc(Cl)cc1C(=O)c1ccccc1)Nc1ccccc1	> 0.005			
		> 222				Cc1cc(OCCCN(C)C)ccc1NC(=O)c1ccc(Cl)cc1C(=O)c1ccccc1				
> 2	< 0.0005	0.208	< 0.01	0.0009 (≈ 0.00193 µM)	< 0.25	CN(C)CCCOc1ccc(NC(=O)COc2ccc(Cl)cc2C(=O)c2ccccc2)cc1	> 0.5			
		0.035	0.023 (≈ 0.0575 µM)			O=C(COc1cc(Cl)c(Cl)cc1C(=O)c1ccccc1)Nc1ccccc1	100 (≈ 250 µM)			
		> 25.2	> 10			O=C(COc1ccc(-n2ccnc2)cc1C(=O)c1ccccc1)Nc1ccccc1	10 (≈ 25.2 µM)			
		> 287				O=C(c1ccccc1)c1cc(Cl)ccc1OC/C=C/c1ccccc1				
2.8	0.016 (≈ 0.0394 µM)	0.0148	0.014 (≈ 0.0345 µM)	0.011 (≈ 0.0271 µM)	1.2	O=C(c1ccccc1)c1cc(Cl)ccc1OCC(=O)N1CCc2ccccc2C1	> 0.5			
3.5	> 5	0.162	0.7 (≈ 1.8 µM)	> 50	< 0.25	O=C(COc1ccc(Cl)cc1C(=O)c1ccccc1)c1cc2ccccc2[nH]1	10 (≈ 25.7 µM)			
		> 250				O=C(COc1ccc(Cl)c(Cl)c1C(=O)c1ccccc1)Nc1ccccc1				
> 6	0.032 (≈ 0.0812 µM)	6.35	0.028 (≈ 0.0711 µM)	0.05 (≈ 0.127 µM)	2.8	Cc1ccccc1CNC(=O)COc1ccc(Cl)cc1C(=O)c1ccccc1	10 (≈ 25.4 µM)			
		32.9	> 100			O=C(COc1ccc(Cl)cc1C(=O)c1ccccc1)Cc1ccccc1	> 100			
1.8	0.0029 (≈ 0.00624 µM)	0.753	0.0044 (≈ 0.00946 µM)	0.016 (≈ 0.0344 µM)	4.75	Cc1cc(OCCCN(C)C)ccc1NC(=O)Cc1ccc(Cl)cc1C(=O)c1ccccc1	> 0.5			
		> 284				O=C(c1ccccc1)c1cc(Cl)ccc1OCCNc1ccccc1				
	0.006 (≈ 0.0172 µM)	0.00859	0.09 (≈ 0.258 µM)	0.014 (≈ 0.0401 µM)		O=C(COc1ccc(F)cc1C(=O)c1ccccc1)Nc1ccccc1	10 (≈ 28.6 µM)			
		> 250				O=C(COc1c(Cl)cc(Cl)cc1C(=O)c1ccccc1)Nc1ccccc1				
		0.436	< 0.01			O=C(COc1ccc(Cl)cc1C(=O)c1cccnc1)Nc1ccccc1	10 (≈ 27.3 µM)			
> 6	0.032 (≈ 0.0882 µM)	1.41	0.31 (≈ 0.854 µM)	0.052 (≈ 0.143 µM)	> 6	O=C(c1ccccc1)c1cc(Cl)ccc1OCc1nc2ccccc2[nH]1	> 0.5			
		0.936	> 10			CCN(CC)CCOc1ccc(NC(=O)COc2ccc(Cl)cc2C(=O)c2ccccc2)cc1	10 (≈ 20.8 µM)			
